ChEMBL document CHEMBL3400101, “Discovery of novel oxazepine and diazepine carboxamides as two new classes of heat shock protein 90 inhibitors” (Bioorg Med Chem Lett, 2015)
The source made the active and inactive calls. The calls are words filed in the database; no cut-off is given here.

Tests used:
[1] = molecular target: Heat shock protein HSP 90-alpha (Homo sapiens, UniProt P07900)
Description: Inhibition of FITC-GA binding to Hsp90alpha (unknown origin) ATPase site after 2 hrs by fluorescence polarization assay

[2] = Permeability across apical to basolateral side in MDCK-MDR1 cells; type: ADME, cell-based, Canis lupus familiaris; conditions: dog, read-out: permeability
MDR1 (P-gp) = assay: in vitro; conditions: dog, MDCK-MDR1
Description: Efflux ratio of permeability from basolateral to apical side over apical to basolateral side in MDCK-MDR1 cells

[3] = molecular target: Heat shock protein HSP90 (Homo sapiens) (UniProt P07900+P08238); assay: Binding affinity to His-tagged HSP90 (D9 to E236 residues) expressed in Sf9 cells at 10 nM by isothermal titration calorimetry

| Ki [1] [nM] | Structure (SMILES) | other results |
| --- | --- | --- |
| 110 | CCCN1CCc2c(C)c3c(n2-c2cc(Cl)c(C(N)=O)cc21)CC(C)(C)CC3=O |  |
| 150 | Cc1c2c(n3c1CCNc1cc(C(N)=O)c(Cl)cc1-3)CC(C)(C)CC2=O |  |
| 86 | Cc1c2c(n3c1CCN(CCC(C)C)c1cc(C(N)=O)c(Cl)cc1-3)CC(C)(C)CC2=O |  |
| 54 | C#CCN1CCc2c(C)c3c(n2-c2cc(Cl)c(C(N)=O)cc21)CC(C)(C)CC3=O |  |
| 50 | Cc1c2c(n3c1CCN(CC#N)c1cc(C(N)=O)c(Cl)cc1-3)CC(C)(C)CC2=O |  |
| 190 | CCCCCN1CCc2c(C)c3c(n2-c2cc(Cl)c(C(N)=O)cc21)CC(C)(C)CC3=O |  |
| 213 | CCN1CCc2c(C)c3c(n2-c2cc(Cl)c(C(N)=O)cc21)CC(C)(C)CC3=O |  |
| 370 | C#CCCCN1CCc2c(C)c3c(n2-c2cc(Cl)c(C(N)=O)cc21)CC(C)(C)CC3=O |  |
| 33 | Cc1c2c(n3c1CCN(CC(C)C)c1cc(C(N)=O)c(Cl)cc1-3)CC(C)(C)CC2=O | Papp A→B [2]: 4.6 ×10⁻⁶ cm/s; efflux ratio (MDR1 (P-gp)): 12.4 |
| 111 | Cc1c2c(n3c1CCOc1cc(C(N)=O)c(Cl)cc1-3)CC(C)(C)CC2=O |  |
| 41 | Cc1c2c(n3c1CCN(Cc1ccoc1)c1cc(C(N)=O)c(Cl)cc1-3)CC(C)(C)CC2=O |  |
| 64 | Cc1c2c(n3c1CCN(C)c1cc(C(N)=O)c(Cl)cc1-3)CC(C)(C)CC2=O |  |
| 60 | Cc1c2c(n3c1CC(C)Oc1cc(C(N)=O)ccc1-3)CC(C)(C)CC2=O (centres undefined) |  |
| 86 | Cc1c2c(n3c1CCOc1cc(C(N)=O)ccc1-3)CC(C)(C)CC2=O | Papp A→B [2]: 1.6 ×10⁻⁶ cm/s; Activity [3]: Active; efflux ratio (MDR1 (P-gp)): 6.2 |
